Assay results: patent publication US11091483B2, “Protein kinase regulators” (Nanjing Gator Meditech Company, Ltd., priority 2016, dated 2021)
Like-named read-outs stand apart in the source and are kept apart here.

How the values were obtained:
[1] = tested on: pAkt (phosphorylated form of Akt); test: Western blots on A549 cells after 72 hours; settings: western blot
Experimental: The following kinases were examined: Akt, pAkt, Mek1, Mek2, Erk2, pErk2 and c-Myc. In addition, Induced myeloid leukemia cell differentiation protein (Mcl-1) was also evaluated.

[2] = tested on: MDA-MB-231 (MDA 231, human breast adenocarcinoma); test: CCK-8 cell viability assay on MDA-MB-231 cells; type: cell-based
Experimental: (§1) The plate is incubated for 48 hours.
(§2) CCK-8 solution is added directly to the cells.

[3] = tested on: HCT116 (human colon cancer); test: CCK-8 cell viability assay on HCT116 cells; type: cell-based; settings: HCT-116, 48 h
Experimental: as §1, §2

[4] = Pharmacokinetic properties in a mouse; settings: for Oral Bioavailability (% F): i.v. 2 mg/kg and oral 10 mg/kg; for AUC(0-inf): plasma, po, 10 mg/kg
Experimental: (§3) Each compound was formulated and administered to a mouse. Blood was taken at specific time points (0.25 h, 0.5 h, 1 h, 2 h, 4 h, 8 h, and 24 h) and evaluated for the drug administered by LC/MS. Each compound was administered i.v. at 2 mg/kg and also evaluated by oral administration (gavage) at 10 mg/kg (Formulation: 5% DMSO+95% HP-β-CD (20%, W/V) yielding a solution). […] In addition, percent oral bioavailability or % F is a measure of the percent of the drug given orally that is in systemic circulation in the plasma.

in vivo = settings: mouse, po, 10 mg/kg
Experimental: as §3

[5] = MDA-MB-231, 48 hours incubation, CCK-8, read-out: IC50 (uM, MDA 231)
[6] = HCT116, 48 hours incubation, CCK-8, read-out: IC50 (uM, HCT116)

Row | SMILES | IC50 [2, 5] [µM] | IC50 [3, 6] [µM] | other results
1 | O=C1C2=C(CCN(Cc3ccccc3)C2)N2CCN=C2N1Cc1ccc(C(F)(F)F)cc1 [Compound 2] | 0.05 | 0.03 | concentration providing similar reductions in pAkt [1]: 0.037 uM
2 | C#Cc1cccc(CN2CCC3=C(C2)C(=O)N(Cc2ccc(Cl)cc2)C2=NCCN23)c1 [Compound 4] | 0.069 | 0.082 | Oral Bioavailability (% F) [4]: 33 % F; AUC(0-inf) [4]: 255 ng·h/mL
3 | Cc1cccc(CN2C(=O)C3=C(CCN(Cc4ccccc4)C3)N3C2=NC2CCCCC23)c1 (stereo not drawn) [Compound 5] | 0.069 | 1.3 | –
4 | O=C1C2=C(CCN(Cc3ccccc3)C2)N2CCN=C2N1Cc1ccccc1C(F)(F)F [Compound 6] | 1.2 | 1.4 | –
5 | O=C1C2=C(CCN(Cc3ccccc3)C2)N2CCN=C2N1Cc1cccc(C(F)(F)F)c1 [Compound 7] | 0.4 | 0.24 | –
6 | C#Cc1cccc(CN2CCC3=C(C2)C(=O)N(Cc2ccc(OC(F)(F)F)cc2)C2=NCCN23)c1 [Compound 8] | 0.88 | 1.8 | –
7 | O=C1C2=C(CCN(Cc3ccccc3)C2)N2CCN=C2N1Cc1ccc(Cl)c(Cl)c1 [Compound 9] | 0.12 | 0.08 | –
8 | Cc1ccccc1CN1C(=O)C2=C(CCN(Cc3ccccc3Br)C2)N2CCN=C12 [Compound 10] | > 25 | > 25 | –
9 | Cc1ccccc1CN1C(=O)C2=C(CCN(Cc3cccc(Br)c3)C2)N2CCN=C12 [Compound 11] | 0.74 | 0.72 | –
10 | C#Cc1cccc(CN2CCC3=C(C2)C(=O)N(Cc2ccc(C(F)(F)F)cc2)C2=NCCN23)c1 [Compound 12] | 0.22 | 0.22 | –
11 | C#Cc1cccc(CN2CCC3=C(C2)C(=O)N(Cc2ccc(Br)cc2)C2=NCCN23)c1 [Compound 13] | 0.28 | 0.28 | –
12 | N#Cc1cccc(CN2CCC3=C(C2)C(=O)N(Cc2ccc(Cl)cc2)C2=NCCN23)c1 [Compound 14] | 0.024 | 0.011 | –
13 | N#Cc1cccc(CN2CCC3=C(C2)C(=O)N(Cc2ccc(C(F)(F)F)cc2)C2=NCCN23)c1 [Compound 15] | 0.024 | 0.007 | –
14 | O=C1C2=C(CCN(Cc3cccc(F)c3)C2)N2CCN=C2N1Cc1ccc(Br)cc1 [Compound 17] | 0.064 | 0.023 | –
15 | O=C1C2=C(CCN(Cc3cccc(F)c3)C2)N2CCN=C2N1Cc1ccc(C(F)(F)F)cc1 [Compound 18] | 0.078 | 0.022 | Oral Bioavailability (% F) [4]: 27 % F; AUC(0-inf) [4]: 823 ng·h/mL
16 | [2H]c1c([2H])c([2H])c(C([2H])([2H])N2CCC3=C(C2)C(=O)N(Cc2ccc(C(F)(F)F)cc2)C2=NCCN23)c([2H])c1[2H] [Compound 19] | – | 0.089 | Oral Bioavailability (% F) [4]: 60 % F; AUC(0-inf) [4]: 604 ng·h/mL
17 | O=C1C2=C(CCN(Cc3ccccc3)C2)N2CCN=C2N1Cc1ccc(OC(F)(F)F)cc1 [Compound 20] | 0.82 | 0.37 | –
18 | O=C1C2=C(CCN(Cc3cccc(OC(F)(F)F)c3)C2)N2CCN=C2N1Cc1ccc(C(F)(F)F)cc1 [Compound 21] | 0.27 | 0.37 | –
19 | C#Cc1ccc(CN2CCC3=C(C2)C(=O)N(Cc2ccc(Cl)cc2)C2=NCCN23)cc1 [Compound 22] | 3.4 | 1.8 | –
20 | O=C1C2=C(CCN(Cc3ccc(F)cc3)C2)N2CCN=C2N1Cc1ccc(Br)cc1 [Compound 23] | 0.61 | 0.36 | –
21 | O=C1C2=C(CCN(Cc3cccc(C(F)(F)F)c3)C2)N2CCN=C2N1Cc1ccc(C(F)(F)F)cc1 [Compound 24] | 0.22 | 0.087 | –
22 | O=C1C2=C(CCN(Cc3cccs3)C2)N2CCN=C2N1Cc1ccc(Cl)cc1 [Compound 25] | 0.71 | 1.7 | –
23 | O=C1C2=C(CCN(Cc3ccsc3)C2)N2CCN=C2N1Cc1ccc(Cl)cc1 [Compound 26] | 0.31 | 0.57 | –
24 | Cc1ccccc1CN1C(=O)C2=C(CCN(Cc3ccccc3)C2)N2CCN=C12 [TIC10, 11-benzyl-7-[(2-methylphenyl)methyl]-2,5,7,11-tetraazatricyclo[7.4.0.0^2,6]trideca-1 (9),5-dien-8-one, reference compound] | – | – | AUC(0-inf) (in vivo): 3.1 ng·h/mL; concentration providing similar reductions in pAkt [1]: 10 uM; IC50 ([2]; MDA-MB-231, 48 h, read-out: IC50 (uM, MDA 231)): 3 µM; Oral Bioavailability (% F) [4]: 1.2 % F; IC50 ([3]; read-out: IC50 (uM, HCT116)): 2.8 µM
